Experimental data published in patent US12533313B2, “Inhalable liposomal sustained release composition for use in treating pulmonary diseases” (INSPIRMED CORP., priority 2018, dated 2026).
Values joined by “and” are separate entries in the source; they are usually repeats but may differ in a detail not shown here. Equal entries are not always repeated.

Tests used:
[1] = Lung retention study of liposomal TKI in healthy mice; assay type: in vivo; conditions: IT, 3.74 mg/mL, after two hours
Description: (§1) A lung retention study of liposomal TKI in healthy mice was conducted to compare the residence times of free form versus liposomal TKI formulations in the mouse lung.

[2] = system: bleomycin-induced pulmonary fibrosis in mice; test: Efficacy of liposomal and oral nintedanib in an IPF animal model, histopathological evaluation of lung tissue; assay type: in vivo; conditions: 60 mg/kg, oral, QD ×10, Day 21, listed as free nintedanib
Description: Q2D×4 signifies one dose administered every other day on day 7, 9, 15, and 17. QD×10 signifies mice received once daily dosing on day 7, 8, 9, 10, 11, 14, 15, 16, 17, and 18. Blood and lung tissue samples were collected on day 21.
Efficacy was determined by histopathological evaluation of mouse lung tissue.
Degree of lesions stained with HE was graded from one to five depending on severity: […]

C57BL/6 mice = test: Observations of mice (mortality) during lung retention study; assay type: in vivo; conditions: healthy mice, IT 50 μL, 3.74 mg/mL nintedanib
Description: as §1

IPF = conditions: cited from earlier work
[3] = Lung retention of nintedanib in an IPF animal model; assay type: in vivo; conditions: fibrotic mice, once-daily oral dosing of 60 mg/kg
Description: First, pulmonary fibrosis was induced by IT instillation of 2.5 mg/kg bleomycin to each mouse. […] Q2D×2 signifies one dose administered every other day for a total of two doses. Blood and lung tissue samples were collected at predetermined time points (Table 7).

## COC(=O)c1ccc2c(c1)NC(=O)/C2=C(\Nc1ccc(N(C)C(=O)CN2CCN(C)CC2)cc1)c1ccccc1 [nintedanib]
[1]
  Drug retained in the lung: almost none of the drug was retained in the lung
[2]; per animal (No. 4 to 6)
  Mean score (fibrosis): ~2 and 2.0 and 1.4
[2]; single scores per animal (No. 4 to 6)
  Interstitial and subpleural, multifocal fibrosis scores: 2 (2=slight (1-25%)) (12×) and 1 (1=minimal (<1%)) (3×)
C57BL/6 mice
  Observation of surviving mice: mice were very weak)
C57BL/6 mice; deaths/mice
  Mortality: 2/9 (the 7 surviving
IPF; current therapeutic amount
  Undesired side effects of oral treatment: diarrhea (most frequent adverse event), nausea, stomach pain, liver problems, vomiting, decreased appetite, headache, weight loss, and high blood pressure
IPF; oral, 150 mg twice a day, clinical trials
  Reduction of lung function decline (increased forced vital capacity) compared to placebo: approximately 50%
[3]
  Drug retention in mouse lung: no nintedanib was detected in lung tissue after just a few hours
